Results: paper PMC6367362, “MD001, a Novel Peroxisome Proliferator-activated Receptor α/γ Agonist, Improves Glucose and Lipid Metabolism” (Scientific Reports, 2019)

Legend:
HepG2 cells [1] = experiment: Fatty acid oxidation assay ([3H]palmitate), HepG2; format: cell-based, human; conditions: 10 μM, 24 h
Procedure: Figure 4 MD001 stimulates fatty acid oxidation in vitro. HepG2 (A), differentiated 3T3-L1 adipocyte (B), and differentiated C2C12 myotubes (C) were treated with vehicle or MD001 (10 μM) for 24 h and total RNA was isolated for cDNA synthesis. Relative gene expressions were analysed by qRT-PCR. HepG2 (D), differentiated 3T3-L1 adipocytes (E), and differentiated C2C12 myotubes (F) were treated with vehicle, MD001 (10 μM), or WY14643 (WY) (10 μM) for 24 h and the fatty acid oxidation rate was analysed as described in the Methods section. To confirm whether the fatty acid oxidation rate enhanced by MD001 is mediated by PPARα, HepG2 (G), differentiated 3T3-L1 (H), and differentiated C2C12 myotubes (I) were transfected with control or PPARα siRNA (20 nM) for 48 h, followed by treatment with vehicle, MD001 (10 μM), or WY14643 (WY) (10 μM) for 24 h. […]
For the fatty acid oxidation assay, cells were incubated in α-MEM (HyClone Laboratories, Inc., Logan, UT, USA) containing 0.1 mM palmitate (9,10-[^3H]palmitate, 5 μci/mL) (PerkinElmer, Waltham, MA, USA) and 1% bovine serum albumin for 24 h. […] After incubation, the vial was removed and radioactivity (^3H2O in water) was quantified using a liquid scintillation counter (LKB Instruments, Victoria, Australia).

db/db mice = experiment: Oral once-daily administration to diabetic db/db mice
Procedure: (A) Changes in blood glucose levels was monitored in db/db mice administered once a day with vehicle, WY14643 (WY, 20 mg/kg), rosiglitazone (rosi, 20 mg/kg), or MD001 (n = 5–6 per group) as indicated. […] (D–M) The change in various blood metabolites was examined in db/db mice administered once a day with vehicle, WY14643 (WY), rosiglitazone (rosi), or MD001 (n = 5–6 per group). *, **, and ^#, vs. vehicle; ^†, vs. vehicle, MD001(5 mg/kg), and MD001(20 mg/kg). The data represent the mean ± S.D. *P < 0.05, **P < 0.01, ^#P < 0.001, and ^†P < 0.01.
Six-week-old C57BLKS/J-Lepr^db/Lepr^db or wild type C57BL/6J male mice were purchased from Orient Bio, Inc. (Seongnam, Korea) and acclimatised for one week. Mice were randomly grouped and orally administered with vehicle, WY14643 (20 mg/kg), rosiglitazone (20 mg/kg), or MD001 (5 mg/kg or 20 mg/kg) once a day for two months. […] Blood glucose levels were measured at the indicated time point using an OneTouch Ultra Blood Glucose Monitoring System (LifeScan, Inc., Milpitas, CA, USA).
Livers and blood samples were collected from mice in each group.
Tissues specimens including liver, perigonadal adipose tissue, skeletal muscle, spleen, kidney, and heart, were collected from mice in each group, fixed in 10% formalin, and embedded into paraffin. Tissue sections (5 μm) were stained with haematoxylin and eosin (H&E).

HepG2 cells [2] = experiment: qRT-PCR gene expression in HepG2 cells; format: cell-based, human; conditions: 24 h
Procedure: Figure 2 MD001 induces the expression of target genes through PPARα and PPARγ activation. HEK293 cells were transiently co-transfected with human HA-PPARα (A) and HA-PPARγ (B) expression vectors along with the reporter plasmid (PPRE-pk-Luc) or control reporter plasmid (pk-Luc) with Renilla vector for 24 h. Cells were treated with MD001 (10 μM), rosiglitazone (rosi) (10 μM) or WY14643 (WY) (10 μM) for 24 h. Luciferase activity was normalised to Renilla luciferase activity as described in the Methods section. **, vs. vehicle. (C) HepG2 cells were treated with MD001 (10 μM) for 24 h, and total RNA was isolated and synthesised into cDNA. Relative expression was quantitated using qRT-PCR. **, vs. vehicle. (D,E) HepG2 cells were transfected with control siRNA, PPARα siRNA (D), or PPARγ siRNA (E) for 48 h and treated with vehicle, WY14643 (10 μM), rosiglitazone (10 μM) or MD001 (10 μM) for 24 h. Subsequently, cells were harvested for total RNA isolation. Relative expression of target genes was quantitated using qRT-PCR. ^#, vs. control siRNA; ^‡, vs. control siRNA/vehicle; ^§, vs. control siRNA/WY; * and **, vs. control siRNA/MD001. Data represent the mean ± SD of three independent experiments. *P < 0.05, **P < 0.01, ^#P < 0.01, ^‡P < 0.01, and ^§P < 0.01.
Figure 3 MD001 promotes glucose consumption by induction of GLUT expression. HepG2 (A), differentiated 3T3-L1 adipocytes (B), and differentiated C2C12 myotubes (C) were treated with vehicle, MD001 (10, 50 μM), or rosiglitazone (rosi, 10 μM) for 24 h; glucose consumption was examined as described in the Methods section. Cells were harvested for total RNA isolation. Relative expression levels of GLUT2 (D) and GLUT4 (E,F) were quantitated using qRT-PCR. *, **, and ^† vs. vehicle. Data represent the mean ± SD of three independent experiments. *P < 0.05, **P < 0.01, and ^†P < 0.01.
Figure 4 MD001 stimulates fatty acid oxidation in vitro. HepG2 (A), differentiated 3T3-L1 adipocyte (B), and differentiated C2C12 myotubes (C) were treated with vehicle or MD001 (10 μM) for 24 h and total RNA was isolated for cDNA synthesis. Relative gene expressions were analysed by qRT-PCR. HepG2 (D), differentiated 3T3-L1 adipocytes (E), and differentiated C2C12 myotubes (F) were treated with vehicle, MD001 (10 μM), or WY14643 (WY) (10 μM) for 24 h and the fatty acid oxidation rate was analysed as described in the Methods section. To confirm whether the fatty acid oxidation rate enhanced by MD001 is mediated by PPARα, HepG2 (G), differentiated 3T3-L1 (H), and differentiated C2C12 myotubes (I) were transfected with control or PPARα siRNA (20 nM) for 48 h, followed by treatment with vehicle, MD001 (10 μM), or WY14643 (WY) (10 μM) for 24 h. WY14643 was treated as positive control. *, **, vs. vehicle; ^† and ^‡, vs. vehicle/control siRNA; ^§, vs. WY/control siRNA; ^¶, vs. MD001/control siRNA. Data represent the mean ± SD of three independent experiments. *P < 0.05, **P < 0.01, ^†P < 0.01, ^‡P < 0.05, ^§P < 0.01, and ^¶P < 0.05.
Total RNA was isolated using an RNeasy kit (Qiagen, Germantown, MD, USA) according to the manufacturer’s instructions. Complementary DNA (cDNA) was synthesised by reverse transcription using 0.5 μg of total RNA, and quantitative RT-PCR was performed using Power SYBR Green PCR Master Mix (ABI Thermo Fisher Scientific, Foster City, CA, USA) on a StepOne 48-well real-time PCR system (ABI/Thermo Fisher Scientific). GAPDH was used as an endogenous control. Primer sequences are summarized in Supplementary Table S1.

[3] = db/db mice, 60 days, rosiglitazone 20 mg/kg, MD001 5 and 20 mg/kg
[4] = db/db mice, once a day for 60 days, rosiglitazone 20 mg/kg
[5] = db/db mice, 20 mg/kg, 60 days, qRT-PCR
[6] = db/db mice, 20 mg/kg, qRT-PCR and immunoblot

With `Cc1c(O)cc(O)c2c(-c3ccccc3)c(C(=O)/C=C/c3ccccc3)c(=O)oc12` [MD001] the “β-oxidation rate (fatty acid oxidation)” value (HepG2 cells [1]) was “significantly increased”, the “blood glucose levels in intraperitoneal insulin tolerance test (IPITT)” value (db/db mice; db/db mice) was “lowered” and the body weight gain (db/db mice; db/db mice, 60 days, compared to vehicle) was “no induction of body weight gain”. For the same compound, the RBC count (db/db mice; [3]) was “did not decrease”, the “haematocrit (HCT) level” value (db/db mice; [3]) was “did not decrease” and the “haemoglobin (Hb) level” value (db/db mice; [3]) was “did not decrease”. For the same compound, the “number of large fat cells (>150 μm in diameter)” value (db/db mice; db/db mice, adipose tissue H&E) was “significantly reduced”, the “number of medium fat cells (100~150 μm in diameter)” value (db/db mice; db/db mice, adipose tissue H&E) was “significantly increased” and the “number of small fat cells (<100 μm in diameter)” value (db/db mice; db/db mice, adipose tissue H&E) was “significantly increased”. For the same compound, the “increase in fat mass as compared to the vehicle control” value (db/db mice; [4]) was “no increase”, the “increase in liver weight as compared to the vehicle control” value (db/db mice; [4]) was “no increase” and the HDL levels (db/db mice; db/db mice, oral once a day) was “increased”. For the same compound, the LDL levels (db/db mice; db/db mice, oral once a day) was “significantly decreased”, the “blood FFA” value (db/db mice; db/db mice, oral once a day) was “significantly decreased” and the “blood TG” value (db/db mice; db/db mice, oral once a day) was “significantly decreased”. The “blood alanine aminotransferase (ALT) levels” value (db/db mice; db/db mice, oral once a day) was “significantly reduced”, the “blood aspartate aminotransferase (AST) levels” value (db/db mice; db/db mice, oral once a day) was “significantly reduced” and the blood insulin (db/db mice; db/db mice, oral once a day) was “significantly decreased”. For the same compound, the “serum adiponectin (Acrp30) levels” value (db/db mice; db/db mice, oral once a day) was “increased”, the total cholesterol levels (db/db mice; db/db mice, oral once a day) was “did not affect” and the blood glucose levels (db/db mice; db/db mice, oral once a day, MD001 5 or 20 mg/kg, WY14643 20 mg/kg, rosiglitazone 20 mg/kg) was “significantly decreased blood glucose levels in a dose-dependent manner”. For the same compound, the “hepatic FFA” value (db/db mice; db/db mice, 20 mg/kg) was “significantly reduced”, the “hepatic TG” value (db/db mice; db/db mice, 20 mg/kg) was “significantly reduced” and the “hepatic steatosis (H&E staining of liver)” value (db/db mice; db/db mice, 20 mg/kg) was “reduction in size and number of hepatic lipid droplets in a dose-dependent manner”. For the same compound, the “diameter of the glomerular capsule” value (db/db mice; db/db mice, 20 mg/kg once a day for 60 days) was “significantly reduced”, the “expression of PEPCK and G6Pase in the liver” value (db/db mice; db/db mice, 20 mg/kg once a day for 60 days, qRT-PCR) was “decreased” and the “H&E staining of skeletal muscle” value (db/db mice; db/db mice, 20 mg/kg, 60 days, compared among vehicle and treated groups) was “no differences”. The “expression of inflammatory genes TNFα, MCP-1 and macrophage-marker genes CD11b, CD11c” value (db/db mice; [5]) was “decreased”, the “liver expression of hepatic lipogenesis genes ADD1, ACC, FAS” value (db/db mice; [5]) was “decreased” and the “skeletal muscle expression of ACOX, CPT, MLYCD, GLUT4, and LPL” value (db/db mice; [5]) was “significantly increased”. The “adipose tissue expression of ACOX, CPT, GLUT4, and CD36” value (db/db mice; [6]) was “significantly increased”, the “liver expression of target genes of PPARα (ACOX, CPT, MLYCD) and PPARγ (GLUT2, GK, CD36)” value (db/db mice; [6]) was “significantly increased” and the “blood glucose levels in oral glucose tolerance test (OGTT)” value (db/db mice; db/db mice, glucose 1 g/kg, eight weeks after drug administration) was “significantly decreased”. For the same compound, the food ingestion (db/db mice; wild type C57BL/6J and db/db mice, 3-day food intake) was “without changes in food ingestion”, the “expression of PPARα target genes ACOX, CPT, mCAD” value (HepG2 cells [2]; HepG2, control siRNA, 10 μM) was “significantly increased” and the “expression of PPARγ target genes GK, CD36, FABP1” value (HepG2 cells [2]; HepG2, control siRNA, 10 μM) was “significantly increased”. For the same compound, the “expression levels of ACOX, CPT, MLYCD, and FATP” value (HepG2 cells [2]; HepG2, 10 μM) was “significantly increased”, the “expression of PPARα, PPARγ, and RXR genes” value (HepG2 cells [2]; HepG2, 10 μM) was “significantly increased” and the “expression of glucose transporter GLUT2” value (HepG2 cells [2]; HepG2, 10, 50 μM) was “significantly increased”.
